# Test results: US20150031739A1, “PANOBINOSTAT FOR USE IN THE TREATMENT OF HIV-1” (Aarhus Universitet, priority 2012, published 2015)
# Columns and labels:
# [1] = system: HIV-1 expression in U1 cells; experiment: HIV-1 activation from U1 cells (p24 gag ELISA); type: cell-based; details: 48 hours
# Method: (§1) HIV-1 activation from U1 cells: U1 cells (obtained through the NIH AIDS Reagent Program) are seeded at 2*10^5/well in a 96-well format in 100 uL RPMI media supplemented with 10% heat inactivated Foetal Bovine Serum and 1% penicillin/streptomycin. HDACi and PMA as positive control is added at desired concentrations in 100 uL. Identical DMSO levels is used for untreated control. All stimulations are performed in triplicate. 48 hours later supernatant is harvested and left for inactivation in 1% Empegen for 1 hour. Levels of HIV-1 p24 gag levels is determined by ELISA as described by the manufacturer (Aalto Bioreagents, Dublin, Ireland).
# [2] = system: HIV-1 expression in ACH2 cells; experiment: HIV-1 activation from ACH2 cells (p24 gag ELISA); type: cell-based; details: 48 hours
# Method: as §1, with “ACH2” for “U1”, “1*10^5/well” for “2*10^5/well”, “Samples are diluted 1/500 and levels” for “Levels”, “gag” for “gag levels”
# CCR5 = details: monocytes; cited from earlier work
# CXCR4 = details: CD4+ T-cells; cited from earlier work
# [3] = 20 mg oral; cited from earlier work
# histone H3 acetylation = experiment: Histone H3 acetylation in PBMC's of patients during panobinostat administration; type: in vivo, human
# Method: One million freshly isolated PBMC's harvested from CPT vacutainers (BD Bioscience, UK) were washed in ice-cold PBS with 1% FBS. Subsequently cells were fixed in 200 uL 1% paraformaldehyde for 15 min on ice and afterwards washed in PBS. […] Following a wash in FACS buffer (PBS/2% FBS), cells were blocked in PBS with 10% FBS for 20 min at RT. For each patient one sample was incubated for 1 hr at RT with either 5 uL primary anti-acetyl histone H3 antibody (Millipore, DK) or 5μ isotype control (final antibody concentration: 10 μg/m). Subsequently, cells were washed in FACS buffer and incubated with 5 uL secondary (Alexa-Flour 488 donkey anti-rabbit IgG from Life Technologies, DK) for 1 hr in the dark at RT (final antibody concentration: 6 μg/m). Lastly, cells were washed in FACS buffer, resuspended in PBS and analyzed on a FACS Canto II.
# [4] = system: cell-associated unspliced HIV RNA; experiment: Cell associated unspliced Gag HIV RNA in CD4+ T cells of treated patients; type: in vivo, HIV-1
# Method: RNA purified from 1 million CD4+ T cells was treated with DNAse and split in 4 portions. Preparation of cDNA was performed by Superscript III Reverse Transcriptase as described by the manufacturer using both Oligo dT and random hexamer priming (Life Technologies, DK). Each cDNA sample was assayed in duplicate in a semi-nested real-time PCR quantification yielding eight replicates for each patient sample.
# First round amplification was carried out with primers 5′-[…]-3′ (SEQ ID NO: 1) and 5′-[…]-3′ (SEQ ID NO: 2) with AmpliTaq gold mastermix (Life Technologies, DK) for a limited 15 cycles and input of 5 uL cDNA.
# PCR conditions were as follows: A denaturation step at 95° C. for 10 minutes followed by 15 cycles of 20 seconds at 94° C., 40 seconds at 55° C. and 40 seconds at 72° C. Second round real-time PCR was performed using SYBR green mastermix (Life Technologies, DK) and primers 5′-[…]-3′ (SEQ ID NO: 3) and 5′-[…]-3′ (SEQ ID NO: 4) on a Bio-Rad CFX96™ Real-time PCR Platform. PCR conditions were as follows: A denaturation step at 95° C. for 10 minutes followed by 45 cycles of 20 seconds at 94° C., 40 seconds at 55° C., 40 seconds at 72° C. Subsequently, a dissociation curve was obtained by heating from 65° C. to 95° C. with a 0.5° C. increment for 5 seconds. A serial diluted standard allow for relative quantification of HIV Gag RNA levels.
# CD4+ T cells = experiment: CD4+ T cell counts in blood during panobinostat treatment; type: in vivo, human; details: intermittent dosing over 51 days, 20 mg oral TIW every other week, HIV-1 patients on HAART
# Method: Measurement of CD4+ T cell counts was performed by flow cytometry as part of routine diagnostics evaluation of HIV-1 patients.
# [5] = system: latently infected cell lines (U1 and ACH2); experiment: HIV-1 expression from latently infected cell lines, statements for both lines; type: cell-based
# Method: as §1
# as §1, with “ACH2” for “U1”, “1*10^5/well” for “2*10^5/well”, “Samples are diluted 1/500 and levels” for “Levels”, “gag” for “gag levels”
# [6] = system: HIV proviral DNA in CD4+ T cells; experiment: Total HIV proviral DNA in purified CD4+ T cells of treated patients; type: in vivo, HIV-1
# Method: DNA was isolated from 1×10^6 CD4+ T cells using AllPrep DNA/RNA Mini kit according to the manufacturer's specifications (Qiagen, Denmark). Cell equivalents were based on RNAseP amplification. The following primers were used to target human RNAseP 5′-[…]-3′ (forward) (SEQ ID NO: 5) and 5′-[…]-3′ (reverse) (SEQ ID NO: 6). Amplification reactions were carried out in duplicates with a primer concentration of 0.5 μM, 10 μL SsoFast™ EvaGreen® Supermix and 1 μL 100-fold diluted DNA as template in 20 μl total volume.
# Using the RNAsePgenome copy number, sample DNA was diluted to 50,000 cell equivalents per PCR reaction. To determine the frequency of CD4+ T cells carrying HIV DNA, we prepared a standard curve obtained by serially diluted DNA from 8E5 cells (carrying one integrated provirus per genome) combined with DNA from HIV-negative PBMCs (305, 153, 76, 38, 19, 9 HIV DNA copies and 100,000 HIV negative cell equivalents per well). The following primers were used to target HIV-DNA: 5′-[…]-3′ (forward) (SEQ ID NO: 7) and 5′-[…]-3′ (reverse) (SEQ ID NO: 8).
# The amplification reaction was carried out in triplicates with a primer concentration of 0.5 μM, 10 μL SsoFast™ EvaGreen® Supermix and 100,000 genomes as template in 20 μl total volume on a Bio-Rad CFX96™ Real-time PCR Platform. PCR conditions were as follows: A denaturation step at 95° C. followed by 45 cycles of 10 seconds at 95° C. and 25 seconds at 62° C. Subsequently a melt curve was obtained heating from 65° C. to 95° C. with a 0.5° C. increment for 5 seconds. Cycle cut off was set at 39 cycles. Amplification products were verified by dissociaton curve. Copy number of HIV DNA per 1×10^6 CD4+ T cells was calculated from the real-time PCR results.
# From the HIV DNA standard curve we set a lower limit of quantification of 12 copies HIV DNA/10^6 CD4+ T cells.
# Samples were drawn from two patients at Baseline (prior to initiation of panobinostat treatment) and after 4 weeks and 8 weeks cyclic panobinostat treatment 20 mg TIW every other week.
# [7] = system: CD69 expression in CD4+ T-cells; experiment: Activation of primary T lymphocytes (CD69 expression, flow cytometry); type: cell-based, human; details: 16 hours
# Method: Expression of the early activation marker CD69 was assessed by flow cytometry in 8 separate experiments with data from one representative experiment shown in figure.
# Activation of primary T lymphocytes: PBMC's are purified using Ficoll Paque gradient centrifugation from fresh blood obtained from healthy donors. 5*10^5 cells are stimulated by different concentrations of HDACi in final volume of 500 uL RPMI media supplemented with 10% heat inactivated Foetal Bovine Serum and 1% penicillin/streptomycin. After 16 hours cells are harvested and washed once in PBS. Cells are stained with Live-dead near IR at a final concentration of 2 uM (Invitrogen, Denmark) for 30 min on ice. Cells are washed twice in PBS. Five uL Fc Block (Sigma, Denmark) at 10 mg/mL is added and cells are incubated 10 min on ice. Cells are subsequently stained with 5 uL CD4 PerCPCy5.5, 5 uL CD27 PE-Cy7, 7 uL CD45RA FITC, 20 uL CCR7 PE all (BD, USA) and 10 uL CD69 APC (BioLegend, USA) for 30 min on ice. Lastly, cells are washed once in PBS and resuspended in FACS flow buffer and stored on ice until analysis by flow cytometry.
# Cytotoxicity of LBH589 = type: cell-based; details: up to 30 nM
# latent viral reservoir = details: clinical study; effect could not be sustained in further studies; cited from earlier work
compound,measurement,setting,value
"O=C(CCCCCCC(=O)Nc1ccccc1)NO [SAHA, suberoylanilide hydroxamic acid]",fold increase in median p24 levels with reference to untreated cultures,[1]; 125 nM,1.0 fold
same,fold increase in median p24 levels with reference to untreated cultures,[1]; 250 nM,1.5 fold
same,fold increase in median p24 levels with reference to untreated cultures,[1]; 500 nM,3.1 fold
same,fold increase in median p24 levels with reference to untreated cultures,[2]; 125 nM,1.4 fold
same,fold increase in median p24 levels with reference to untreated cultures,[2]; 250 nM,2.4 fold
same,fold increase in median p24 levels with reference to untreated cultures,[2]; 500 nM,6.9 fold
CCN(CC)Cc1ccc2cc(COC(=O)Nc3ccc(C(=O)NO)cc3)ccc2c1 [ITF2357],fold increase in median p24 levels with reference to untreated cultures,[1]; 125 nM,3.2 fold
same,fold increase in median p24 levels with reference to untreated cultures,[1]; 250 nM,9.2 fold
same,surface expression of CCR5,CCR5,decreased surface expression
same,fold increase in median p24 levels with reference to untreated cultures,[2]; 125 nM,6.2 fold
same,fold increase in median p24 levels with reference to untreated cultures,[2]; 250 nM,18.5 fold
same,surface expression of CXCR4,CXCR4,decreased surface expression
"Cc1[nH]c2ccccc2c1CCNCc1ccc(/C=C/C(=O)NO)cc1 [LBH589, N-Hydroxy-3-[4-[2-(2-methyl-1H-indol-3-yl)ethylaminomethyl]phenyl]-2(E)-propenamide]",maximal plasma concentration,[3],approximately 60 nM
same,average increase of histone H3 acetylation from baseline,"histone H3 acetylation; day 4, eight patients, PBMC's, panobinostat 20 mg TIW every other week",267%
same,levels of histone acetylation,histone H3 acetylation; off-treatment weeks,dropped to near baseline levels
same,cell-associated unspliced Gag HIV RNA,"[4]; patient A, first off/on cycle analyzed, off treatment",178 Gag HIV RNA copies
same,cell-associated unspliced Gag HIV RNA,"[4]; patient A, first off/on cycle analyzed, on treatment",323 Gag HIV RNA copies
same,cell-associated unspliced Gag HIV RNA,"[4]; patient A, second off/on cycle analyzed, off treatment",57 Gag HIV RNA copies
same,cell-associated unspliced Gag HIV RNA,"[4]; patient A, second off/on cycle analyzed, on treatment",362 Gag HIV RNA copies
same,cell-associated unspliced Gag HIV RNA,"[4]; patient B, first off/on cycle analyzed, off treatment",504 Gag HIV RNA copies
same,cell-associated unspliced Gag HIV RNA,"[4]; patient B, first off/on cycle analyzed, on treatment",841 Gag HIV RNA copies
same,cell-associated unspliced Gag HIV RNA,"[4]; patient B, second off/on cycle analyzed, off treatment",892 Gag HIV RNA copies
same,cell-associated unspliced Gag HIV RNA,"[4]; patient B, second off/on cycle analyzed, on treatment",1196 Gag HIV RNA copies
same,effect on CD4+ T cell counts in blood,CD4+ T cells,no immune deterioration
same,rank order of induced HIV-1 expression,[5]; direct comparison at the concentration obtained with clinical use,LBH589>ITF2357 and PXD101>SAHA
same,rank order of potency when stimulating HIV-1 expression,[5]; latently infected cell lines,LBH589>ITF2357 and PXD101>SAHA>VPA
same,concentration range in which HIV-1 expression is induced,[5]; latently infected cell lines U1 and ACH2,8 to 32 nM
same,proviral DNA level,"[6]; patient A, end of treatment (8 weeks), baseline 46 copies/10^6 CD4+ T cell",remained low
same,proviral DNA level,"[6]; patient A, first two treatment cycles (4 weeks), 20 mg TIW every other week, baseline 46 copies/10^6 CD4+ T cell, lower limit of quantification 12 copies",dropped below detection
same,proviral DNA level,"[6]; patient B, after 4 weeks, baseline 173 copies/10^6 CD4+ T cells",125 copies/10^6 CD4+ T cell
same,proviral DNA level,"[6]; patient B, end of treatment (8 weeks), baseline 173 copies/10^6 CD4+ T cells, lower limit of quantification 12 copies",undetectable
same,"concentration at which induction of CD69 expression occurred, compared with other HDACi",[7]; CD4+ T-cells,"much lower concentrations of LBH589 than ITF2357, PXD101, and SAHA"
same,proportion of primary T-cells expressing the early activation marker CD69,"[7]; PBMCs from healthy donors, increasing concentrations (2-31 nM), compared to untreated cells",increased
same,CD69 expression in memory T-cell subsets,[7]; central memory T-cells,highest levels
same,cytotoxicity,Cytotoxicity of LBH589,No cytotoxicity above background
"CCCC(CCC)C(=O)O [VPA, valproic acid]",fold increase in median p24 levels with reference to untreated cultures,[1]; 0.25 mM,1.4 fold
same,fold increase in median p24 levels with reference to untreated cultures,[1]; 0.5 mM,2.8 fold
same,fold increase in median p24 levels with reference to untreated cultures,[2]; 0.25 mM,2.1 fold
same,fold increase in median p24 levels with reference to untreated cultures,[2]; 0.5 mM,7.3 fold
same,patients in whom depletion of the latent viral reservoir was seen,latent viral reservoir,3 of 4
O=C(/C=C/c1cccc(S(=O)(=O)Nc2ccccc2)c1)NO [PXD101],fold increase in median p24 levels with reference to untreated cultures,[1]; 125 nM,2.4 fold
same,fold increase in median p24 levels with reference to untreated cultures,[1]; 250 nM,7.4 fold
same,fold increase in median p24 levels with reference to untreated cultures,[2]; 125 nM,5.8 fold
same,fold increase in median p24 levels with reference to untreated cultures,[2]; 250 nM,18.3 fold
